Laboratory results as given in ChEMBL document CHEMBL1136816, “Synthesis and evaluation of ether and halogenated derivatives of mannopeptimycin glycopeptide antibiotics” (2003).
≈ marks a conversion by molar mass, not a printed value. Values belong to the compound of their own block, whether it stands above or below them.

Legend:
Assay type in all cases: functional
[1] = test system: Enterococcus sp.; assay: In vitro minimum inhibitory concentration against Enterococcus species; 1-2
[2] = test system: Streptococcus sp.; assay: In vitro minimum inhibitory concentration against Streptococcus species
[3] = test system: Staphylococcus aureus; assay: In vitro minimum inhibitory concentration against Staphylococcus aureus; 0.25-1
[4] = test system: Staphylococcus aureus; assay: In vitro minimum inhibitory concentration against Staphylococcus aureus; 1-8
[5] = test system: Streptococcus sp.; assay: In vitro minimum inhibitory concentration against Streptococcus species; 0.5-4
[6] = test system: Enterococcus sp.; assay: In vitro minimum inhibitory concentration against Enterococcus species; 4-64
[7] = test system: Staphylococcus aureus; assay: In vitro minimum inhibitory concentration against Staphylococcus aureus; 0.5->64
[8] = test system: Enterococcus sp.; assay: In vitro minimum inhibitory concentration against Enterococcus species; 0.25->64
[9] = test system: Streptococcus sp.; assay: In vitro minimum inhibitory concentration against Streptococcus species; </=0.06-1
[10] = test system: Enterococcus sp.; assay: In vitro minimum inhibitory concentration against Enterococcus species; 1-4
[11] = test system: Staphylococcus aureus; assay: In vitro minimum inhibitory concentration against Staphylococcus aureus; 1-2
[12] = test system: Staphylococcus aureus; assay: In vitro minimum inhibitory concentration against Staphylococcus aureus; 2-4
[13] = test system: Streptococcus sp.; assay: In vitro minimum inhibitory concentration against Streptococcus species; </=0.06-0.25
[14] = test system: Enterococcus sp.; assay: In vitro minimum inhibitory concentration against Enterococcus species; 2-4

Structure (SMILES): C[C@@H](c1ccccc1)[C@@H]1NC(=O)CNC(=O)[C@H](CO)NC(=O)[C@@H]([C@@H](O)[C@@H]2CN=C(N)N2[C@H]2O[C@H](CO)[C@@H](O)[C@H](O)[C@@H]2O)NC(=O)[C@H]([C@@H](O)[C@@H]2CN=C(N)N2)NC(=O)[C@@H](Cc2ccc(O[C@H]3O[C@H](CO)[C@@H](O[C@H]4O[C@H](COCc5ccc(OCc6ccccc6)cc5)[C@@H](O)[C@H](O)[C@@H]4O)[C@H](O)[C@@H]3O)cc2)NC1=O
MIC [10]: 1 µg/mL (≈ 0.67 µM) | MIC [11]: 1 µg/mL (≈ 0.67 µM) | MIC [2]: ≤ 0.06 µg/mL

Structure (SMILES): COc1ccc(COC[C@H]2O[C@H](O[C@H]3[C@H](O)[C@H](O)[C@@H](Oc4ccc(C[C@H]5NC(=O)[C@H]([C@@H](C)c6ccccc6)NC(=O)CNC(=O)[C@H](CO)NC(=O)[C@@H]([C@@H](O)[C@@H]6CN=C(N)N6[C@H]6O[C@H](CO)[C@@H](O)[C@H](O)[C@@H]6O)NC(=O)[C@H]([C@@H](O)[C@@H]6CN=C(N)N6)NC5=O)cc4)O[C@@H]3CO)[C@@H](O)[C@@H](O)[C@@H]2O)cc1OCc1ccccc1
MIC [12]: 2 µg/mL (≈ 1.31 µM) | MIC [13]: ≤ 0.06 µg/mL | MIC [14]: 2 µg/mL (≈ 1.31 µM)

Next, values leading:

MIC [1]: 1 µg/mL (≈ 0.682 µM) | MIC [2]: ≤ 0.06 µg/mL | MIC [3]: 0.25 µg/mL (≈ 0.171 µM)
Structure (SMILES): COc1ccc2cc(CO[C@H]3[C@H](O)[C@H](O)[C@@H](O[C@H]4[C@H](O)[C@H](O)[C@@H](Oc5ccc(C[C@H]6NC(=O)[C@H]([C@@H](C)c7ccccc7)NC(=O)CNC(=O)[C@H](CO)NC(=O)[C@@H]([C@@H](O)[C@@H]7CN=C(N)N7[C@H]7O[C@H](CO)[C@@H](O)[C@H](O)[C@@H]7O)NC(=O)[C@H]([C@@H](O)[C@@H]7CN=C(N)N7)NC6=O)cc5)O[C@@H]4CO)O[C@@H]3CO)ccc2c1

MIC [4]: 1 µg/mL (≈ 0.719 µM) | MIC [5]: 0.5 µg/mL (≈ 0.359 µM) | MIC [6]: 4 µg/mL (≈ 2.87 µM)
Structure (SMILES): C[C@@H](c1ccccc1)[C@@H]1NC(=O)CNC(=O)[C@H](CO)NC(=O)[C@@H]([C@@H](O)[C@@H]2CN=C(N)N2[C@H]2O[C@H](CO)[C@@H](O)[C@H](O)[C@@H]2O)NC(=O)[C@H]([C@@H](O)[C@@H]2CN=C(N)N2)NC(=O)[C@@H](Cc2ccc(O[C@H]3O[C@H](CO)[C@@H](O[C@H]4O[C@H](COCc5cccs5)[C@@H](O)[C@H](O)[C@@H]4O)[C@H](O)[C@@H]3O)cc2)NC1=O

MIC [7]: 0.5 µg/mL (≈ 0.966 µM) | MIC [8]: 0.25 µg/mL (≈ 0.483 µM) | MIC [9]: ≤ 0.06 µg/mL
Structure (SMILES): CCN1CCN(C(=O)N[C@@H](C(=O)N[C@@H]2C(=O)N3[C@@H]2SC(C)(C)[C@@H]3C(=O)O)c2ccccc2)C(=O)C1=O [PIPERACILLIN]
